Assay results: PMC5688144, “Assay interference and off-target liabilities of reported histone acetyltransferase inhibitors” (Nature Communications, 2017)

Key:
PCAF = target: T1, PCAF (Homo sapiens, UniProt Q92831); details: original report; 27 (Supplementary References); cited from earlier work
T1 construct: Reaction Biology Corporation (assays run by this contract lab)

p300/CBP = details: original report; 27 (Supplementary References); cited from earlier work
[1] = design: method as in not given; details: noted in discussion; ref not given; cited from earlier work
human La antigen = target: T2, human La antigen (Homo sapiens, UniProt P05455, T302N); test: ALARM NMR; assay type: binding; details: 400 μM compound; for ALARM NMR, (-) DTT: 0 mM DTT; for ALARM NMR, (+) DTT: DTT present; for ALARM NMR interpretation: with and without DTT
T2 construct: amino acids 100–324 of the human La antigen (plus T302N mutation); 6xHis (N); 6xHis (C); host or cells: Escherichia coli Rosetta cells
T2 sequence (P05455 100-324 T302N): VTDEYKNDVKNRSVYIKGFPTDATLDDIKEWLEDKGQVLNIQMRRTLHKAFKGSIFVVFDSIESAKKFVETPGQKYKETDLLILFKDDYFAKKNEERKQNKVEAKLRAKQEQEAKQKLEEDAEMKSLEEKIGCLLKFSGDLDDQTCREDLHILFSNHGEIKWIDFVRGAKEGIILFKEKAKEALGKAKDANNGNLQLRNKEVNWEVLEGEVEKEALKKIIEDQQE
Description: The gene encoding amino acids 100–324 of the human La antigen (plus T302N mutation) was cloned into pET28b + vector (Novagen) with both an N- and C-terminal 6xHis tag (addgene.org, plasmid ID 90209). The sequence identity of the ALARM NMR plasmid construct was verified by Sanger sequencing of the transgene region and next-generation sequencing of the whole plasmid.
Plasmid was transformed into Escherichia coli Rosetta cells (Novagen) and cultured in M9 minimal media. The La antigen was labeled by adding ^13C-labeled amino acid precursors ([3-^13C]-α-ketobutyrate and [3,3′-^13C]-α-ketoisovalerate sodium salts; Cambridge Isotope Laboratories; 250 mg L^−1 final concentrations) to culture medium 30 min before induction with IPTG (1 mM final concentration). Bacteria were collected after incubation at 25 °C for 8 h and washed with ice-cold phosphate-buffered saline (PBS). Washed cells were lysed by French press in ice-cold lysis buffer (50 mM Tris, pH 7.6, 300 mM NaCl, 10% glycerol (v/v), 5 mM β-mercaptoethanol (BME), 5 mM imidazole, 2 mM MgCl2, benzonase, and protease inhibitor cocktail), followed by an additional brief sonication step (3 × 15 s pulse sequence) on ice. This lysed solution was centrifuged (30,000×g for 30 min, two cycles) to remove cellular debris, then loaded onto a pre-washed Ni-NTA bead column (Qiagen) kept at 4 °C and washed with buffer (50 mM Tris, pH 7.6, 300 mM NaCl, 10% glycerol (v/v), 5 mM BME, 5 mM imidazole). The La antigen was eluted with an elution buffer (50 mM Tris, pH 7.6, 300 mM NaCl, 10% glycerol (v/v), 5 mM BME, imidazole gradient ranging from 5 mM to 0.5 M). […] Aliquots were flash-frozen in liquid N2 and stored at −80 °C until further use. Before use, aliquots of ~150 μM protein were incubated in the presence of 20 mM DTT at 37 °C for 1 h, then dialyzed (25 mM sodium phosphate buffer, pH 7.0 (no DTT)) in 16 h cycles at 4 °C with constant nitrogen bubbling and with gentle stirring, for three total buffer cycles.
For standard testing conditions, the [^1H-^13C]-HMQC spectra were acquired in 25 mM sodium phosphate buffer, pH 7.0, 10% D2O (v/v; CIL) ± 400 μM test compounds delivered from the aforementioned stock solutions, and ± 20 mM non-deuterated DTT. Final concentration of DMSO was 4.0% (v/v). Reaction solutions were mixed, then centrifuged for 5 min (1000×g) in non-binding 384-well microplates at RT, then incubated at 37 °C for 1 h and then 30 °C for 15 h before obtaining spectra. Samples were checked for evidence of gross precipitation. Data were recorded at 298 K on a Bruker UltraShield 700 MHz NMR spectrometer equipped with a Bruker 1.7 mm TCI Cryoprobe and Bruker SampleJet autosampler. Samples were tested at 50 μM protein concentrations using 16 scans, 2048 complex points in F2, and 80 points in F1 using standard protein [^1H-^13C]-HMQC and water suppression pulse sequences.
Data were analyzed in TopSpin™ 3.5 (Bruker). Reactions were normalized to equivalent DMSO controls. Non-reactive compounds were identified by the absence of chemical shifts or changes in peak intensities (^13C-methyl) ± 20 mM DTT.

AmpC β-lactamase = target: T3, AmpC β-lactamase (Escherichia coli, UniProt P00811); test: biochemical; design: species or system E. coli; details: 10 μM compound; ± 0.01% Triton X-100
T3 construct: Recombinant E. coli AmpC (amino acids 20–377); purchased MyBioSource.com
Experimental: Selected compounds were assessed for aggregation using a modified AmpC β-lactamase counter-screen[24],[32],[64]. Recombinant E. coli AmpC (amino acids 20–377) was obtained from MyBioSource.com. Testing was performed in ALARM NMR buffer (25 mM sodium phosphate, pH 7.0) in flat-bottom UV-transparent 96-well microplates in 150 μL reaction volumes. Compounds were tested in triplicate at 10 μM final concentrations in either the presence or absence of freshly-prepared 0.01% Triton X-100 (v/v). Final concentration of DMSO was 2.0% (v/v). Compounds were incubated with ~5 nM AmpC in 147 μL reaction buffer for 5 min at RT, followed by the addition of 3 μL of nitrocefin substrate (100 μM final concentration). Reaction solutions were gently mixed by pipetting up and down three times using a multichannel pipette. […] Percent activity was normalized to DMSO-only controls. Fluconazole and lidocaine were included as negative aggregation control compounds. Rottlerin was included as a positive aggregation control compound. Aggregators were defined as compounds with significant detergent-dependent changes in AmpC activity (t-test, adjusted P-value <0.05; mean differences greater than 30%). Activators were defined as compounds that increased AmpC enzymatic activity.

MOZ [2] = target: MOZ; design: method as in ref 26 (Supplementary References); details: original report; ref 26 (Supplementary References); cited from earlier work
MOZ [3] = details: original report; ref 26 (Supplementary References); cited from earlier work
MOF = system: MOF; design: method as in ref 19, 26 (Supplementary References); details: original report; 26 (Supplementary References); cited from earlier work
[4] = UPLC-MS gross compound stability in assay buffer; details: 25 mM sodium phosphate, pH 7.0, 30 °C, no GSH or CoA
Experimental: Select compounds were incubated up to 24 h for additional stability analyses. Chromatograms and mass spectra were qualitatively analyzed for the formation of new peaks and/or loss of parent peaks.

Absorbance spectra = assay type: physicochemical; details: 25 mM sodium phosphate, pH 7.0
Experimental: Selected test compounds were assessed for absorption between 300 and 750 nm. Most compound absorption spectra were obtained at 100, 50, and 10 μM final compound concentrations in ALARM NMR buffer (25 mM sodium phosphate, pH 7.0). Final concentration of DMSO was constant at 2.0% (v/v). Compounds were allowed to incubate at RT in buffer for 10 min in UV-transparent polystyrene 384-well plates. Absorbance spectra were then obtained on a SpectraMax M3 or BMG Labtech CLARIOstar microplate reader at 25 °C. Significant absorbance was defined as molar absorptivity constants greater than 2000 M^−1 cm^−1 at wavelengths greater than 300 nm.

| Compound | IC50 (PCAF) [µM] | IC50 (p300/CBP) [µM] | cell permeability [1] | ALARM NMR, (-) DTT (human La antigen) | ALARM NMR, (+) DTT (human La antigen) | ALARM NMR readout (human La antigen; overall readout) | ALARM NMR interpretation (human La antigen) | AmpC aggregation counter-screen (AmpC β-lactamase) | Kd (MOZ [2]) [nM] | Ki (MOZ [3]) [nM] | IC50 (MOF) [µM] | UPLC-MS buffer stability counter-screen [4] | Absorption max (nm) (Absorbance spectra) | Absorbance counter-screen (Absorbance spectra; 300-750 nm) |
| --- | --- | --- | --- | --- | --- | --- | --- | --- | --- | --- | --- | --- | --- | --- |
| CC(=O)N[C@H](CCCCNC(=O)CSCCNC(=O)CCNC(=O)C(O)C(C)(C)COP(=O)(O)OP(=O)(O)OC[C@H]1O[C@@H](n2cnc3c(N)ncnc32)[C@H](O)[C@@H]1OP(=O)(O)O)C(N)=O (stereo partly shown) [Compound 23, Lys-CoA] | 200 | 0.5 | cell-impermeable | Negative | Negative | negative | Inert as tested | Detergent-insensitive | – | – | – | – | – | – |
| N#Cc1c2ccc(N)cc2nc2cc(N)ccc12 [Compound 22, CTx-1] | > 100 | – | – | Negative | Negative | – | Inert as tested | Detergent-insensitive | 380 | 2400 | > 100 | Grossly stable | Nominal | Negative |
